7 compounds from ChEMBL document CHEMBL5465560, “Selectivity Literature for EUbOPEN Chemogenomic Library” (2024) can be followed below.

For assay [1], the target named is T1, Mitogen-activated protein kinase 12 (Homo sapiens) (UniProt P53778).
T1 sequence (whole entry): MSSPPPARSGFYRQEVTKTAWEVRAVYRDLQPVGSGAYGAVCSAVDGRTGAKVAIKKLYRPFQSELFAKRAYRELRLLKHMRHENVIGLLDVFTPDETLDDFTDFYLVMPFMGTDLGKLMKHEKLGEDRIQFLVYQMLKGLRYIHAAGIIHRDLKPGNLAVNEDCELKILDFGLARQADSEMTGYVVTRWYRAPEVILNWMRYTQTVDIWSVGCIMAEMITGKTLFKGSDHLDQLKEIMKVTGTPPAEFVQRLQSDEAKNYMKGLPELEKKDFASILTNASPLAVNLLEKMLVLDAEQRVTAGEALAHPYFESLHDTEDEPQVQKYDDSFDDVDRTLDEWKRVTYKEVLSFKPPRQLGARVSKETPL
The conditions noted are these: at 10 µM.

Assay [2] concerns the target T2, Ephrin type-B receptor 3 (Homo sapiens) (UniProt P54753).
T2 sequence (whole entry): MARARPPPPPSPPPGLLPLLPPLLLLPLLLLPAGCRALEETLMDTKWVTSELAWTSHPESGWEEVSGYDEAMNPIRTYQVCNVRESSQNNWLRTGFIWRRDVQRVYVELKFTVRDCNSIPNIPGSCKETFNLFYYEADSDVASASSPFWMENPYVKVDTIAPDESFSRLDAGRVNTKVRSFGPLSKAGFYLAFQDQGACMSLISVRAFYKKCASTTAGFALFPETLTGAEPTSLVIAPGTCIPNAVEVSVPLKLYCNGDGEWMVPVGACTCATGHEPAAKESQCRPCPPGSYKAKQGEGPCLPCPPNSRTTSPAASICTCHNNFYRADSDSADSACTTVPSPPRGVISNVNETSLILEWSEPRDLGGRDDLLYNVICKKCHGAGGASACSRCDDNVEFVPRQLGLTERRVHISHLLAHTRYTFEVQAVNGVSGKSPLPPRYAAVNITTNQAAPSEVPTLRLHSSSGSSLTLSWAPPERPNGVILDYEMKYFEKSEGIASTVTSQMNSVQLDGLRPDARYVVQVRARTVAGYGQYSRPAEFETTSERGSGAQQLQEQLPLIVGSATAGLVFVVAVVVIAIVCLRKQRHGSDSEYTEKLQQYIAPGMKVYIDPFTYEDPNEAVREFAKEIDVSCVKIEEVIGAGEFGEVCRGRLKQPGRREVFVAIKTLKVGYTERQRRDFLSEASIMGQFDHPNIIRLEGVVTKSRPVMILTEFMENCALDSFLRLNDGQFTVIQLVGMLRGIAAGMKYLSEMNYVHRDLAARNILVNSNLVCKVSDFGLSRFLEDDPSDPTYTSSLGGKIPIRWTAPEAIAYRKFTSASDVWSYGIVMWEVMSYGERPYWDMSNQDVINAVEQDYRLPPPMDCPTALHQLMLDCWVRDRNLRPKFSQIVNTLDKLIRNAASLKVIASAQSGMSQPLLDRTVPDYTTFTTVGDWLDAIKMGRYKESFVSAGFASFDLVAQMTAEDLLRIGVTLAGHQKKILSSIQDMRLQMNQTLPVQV
In words: Selectivity interaction (KinomeScan (DiscoverX)) EUB0001079a EPHB3. The conditions noted are these: at 1 µM.

The target in assay [3] is T3, Mitogen-activated protein kinase kinase kinase 12 (Homo sapiens) (UniProt Q12852).
T3 sequence (whole entry): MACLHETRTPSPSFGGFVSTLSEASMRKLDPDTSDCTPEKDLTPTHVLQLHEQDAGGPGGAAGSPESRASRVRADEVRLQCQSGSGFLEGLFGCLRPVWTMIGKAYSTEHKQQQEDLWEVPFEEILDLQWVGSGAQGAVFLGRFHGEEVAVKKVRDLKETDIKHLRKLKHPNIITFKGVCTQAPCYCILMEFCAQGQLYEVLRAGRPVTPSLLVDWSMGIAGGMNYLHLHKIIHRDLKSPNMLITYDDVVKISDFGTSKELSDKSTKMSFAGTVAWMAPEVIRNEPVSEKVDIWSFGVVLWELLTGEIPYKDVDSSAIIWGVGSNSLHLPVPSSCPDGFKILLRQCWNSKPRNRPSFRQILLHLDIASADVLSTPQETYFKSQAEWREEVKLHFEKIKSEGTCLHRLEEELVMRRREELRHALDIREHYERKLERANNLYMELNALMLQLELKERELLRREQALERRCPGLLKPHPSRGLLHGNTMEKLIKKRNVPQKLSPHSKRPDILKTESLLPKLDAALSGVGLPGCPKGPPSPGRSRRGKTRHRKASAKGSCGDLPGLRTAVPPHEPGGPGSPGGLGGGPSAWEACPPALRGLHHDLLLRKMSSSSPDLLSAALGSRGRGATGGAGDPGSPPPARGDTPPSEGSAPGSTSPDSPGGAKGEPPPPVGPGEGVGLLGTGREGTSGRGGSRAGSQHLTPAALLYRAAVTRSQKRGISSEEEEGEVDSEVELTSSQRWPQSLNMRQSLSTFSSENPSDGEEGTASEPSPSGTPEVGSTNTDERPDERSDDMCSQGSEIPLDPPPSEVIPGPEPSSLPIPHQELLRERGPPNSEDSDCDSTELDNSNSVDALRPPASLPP
Kind of assay: Selectivity interaction (KinomeScan (DiscoverX)) EUB0000092b MAP3K12. The conditions noted are these: at 10 µM.

Assay [4] concerns the target Ephrin type-A receptor 7 (Homo sapiens) (UniProt Q15375). Kind of assay: Selectivity interaction (KinomeScan (DiscoverX)) EUB0001049a EPHA7. Conditions: at 1 µM.
Assay [5] deals with Serine/threonine-protein kinase 32A (Homo sapiens) (UniProt Q8WU08). Kind of assay: Selectivity interaction (KinomeScan (DiscoverX)) EUB0001049a STK32A. The conditions noted are these: at 1 µM.
The target in assay [6] is Myosin-IIIa (Homo sapiens) (UniProt Q8NEV4). Kind of assay: Selectivity interaction (KinomeScan (DiscoverX)) EUB0000695a MYO3A. Conditions: at 100 nM.
In assay [7] the target is Mitotic checkpoint serine/threonine-protein kinase BUB1 (Homo sapiens, UniProt O43683). In words: Selectivity interaction (KinomeScan (DiscoverX)) EUB0000666a BUB1. The conditions noted are these: at 10 µM.
Assay [8] has as its target Protein-tyrosine kinase 2-beta (Homo sapiens) (UniProt Q14289). Kind of assay: Selectivity interaction (ActivX KiNativ screen (kinase selectivity in THP-1 cell lysates)) EUB0000639a PTK2B. The conditions noted are these: lysate, at 0.01 µM. It is filed as subcellular.

SMILES strings stand for the structures.

Chain of Ephrin type-A receptor 7 (Homo sapiens) (Q15375 28-998 limits assumed): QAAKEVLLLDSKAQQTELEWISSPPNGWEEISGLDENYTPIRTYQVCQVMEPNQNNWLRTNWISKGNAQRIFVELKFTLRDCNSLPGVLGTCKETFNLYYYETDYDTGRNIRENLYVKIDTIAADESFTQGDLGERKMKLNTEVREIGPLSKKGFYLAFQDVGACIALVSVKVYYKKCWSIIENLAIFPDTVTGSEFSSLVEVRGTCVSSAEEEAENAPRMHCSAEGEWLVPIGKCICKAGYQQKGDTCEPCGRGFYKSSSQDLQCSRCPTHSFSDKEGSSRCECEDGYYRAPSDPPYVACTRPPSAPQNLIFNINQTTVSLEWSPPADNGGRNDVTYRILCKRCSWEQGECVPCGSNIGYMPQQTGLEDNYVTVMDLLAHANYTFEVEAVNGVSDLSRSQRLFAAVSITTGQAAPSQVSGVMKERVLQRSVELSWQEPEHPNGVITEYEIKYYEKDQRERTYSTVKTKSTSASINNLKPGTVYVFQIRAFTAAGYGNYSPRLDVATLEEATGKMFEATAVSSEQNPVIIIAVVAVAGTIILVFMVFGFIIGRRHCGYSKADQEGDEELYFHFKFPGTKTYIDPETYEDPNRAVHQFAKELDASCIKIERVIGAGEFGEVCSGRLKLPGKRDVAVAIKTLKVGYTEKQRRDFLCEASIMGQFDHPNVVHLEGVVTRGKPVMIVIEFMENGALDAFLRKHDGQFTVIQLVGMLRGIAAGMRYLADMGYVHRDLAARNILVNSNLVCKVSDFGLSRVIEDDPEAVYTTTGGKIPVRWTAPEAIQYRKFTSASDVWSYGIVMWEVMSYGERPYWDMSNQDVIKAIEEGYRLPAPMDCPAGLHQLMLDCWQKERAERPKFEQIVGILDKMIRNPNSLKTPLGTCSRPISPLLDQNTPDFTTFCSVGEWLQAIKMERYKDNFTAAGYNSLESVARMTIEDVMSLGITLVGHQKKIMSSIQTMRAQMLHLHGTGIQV
Chain of Myosin-IIIa (Homo sapiens) (Q8NEV4 whole entry): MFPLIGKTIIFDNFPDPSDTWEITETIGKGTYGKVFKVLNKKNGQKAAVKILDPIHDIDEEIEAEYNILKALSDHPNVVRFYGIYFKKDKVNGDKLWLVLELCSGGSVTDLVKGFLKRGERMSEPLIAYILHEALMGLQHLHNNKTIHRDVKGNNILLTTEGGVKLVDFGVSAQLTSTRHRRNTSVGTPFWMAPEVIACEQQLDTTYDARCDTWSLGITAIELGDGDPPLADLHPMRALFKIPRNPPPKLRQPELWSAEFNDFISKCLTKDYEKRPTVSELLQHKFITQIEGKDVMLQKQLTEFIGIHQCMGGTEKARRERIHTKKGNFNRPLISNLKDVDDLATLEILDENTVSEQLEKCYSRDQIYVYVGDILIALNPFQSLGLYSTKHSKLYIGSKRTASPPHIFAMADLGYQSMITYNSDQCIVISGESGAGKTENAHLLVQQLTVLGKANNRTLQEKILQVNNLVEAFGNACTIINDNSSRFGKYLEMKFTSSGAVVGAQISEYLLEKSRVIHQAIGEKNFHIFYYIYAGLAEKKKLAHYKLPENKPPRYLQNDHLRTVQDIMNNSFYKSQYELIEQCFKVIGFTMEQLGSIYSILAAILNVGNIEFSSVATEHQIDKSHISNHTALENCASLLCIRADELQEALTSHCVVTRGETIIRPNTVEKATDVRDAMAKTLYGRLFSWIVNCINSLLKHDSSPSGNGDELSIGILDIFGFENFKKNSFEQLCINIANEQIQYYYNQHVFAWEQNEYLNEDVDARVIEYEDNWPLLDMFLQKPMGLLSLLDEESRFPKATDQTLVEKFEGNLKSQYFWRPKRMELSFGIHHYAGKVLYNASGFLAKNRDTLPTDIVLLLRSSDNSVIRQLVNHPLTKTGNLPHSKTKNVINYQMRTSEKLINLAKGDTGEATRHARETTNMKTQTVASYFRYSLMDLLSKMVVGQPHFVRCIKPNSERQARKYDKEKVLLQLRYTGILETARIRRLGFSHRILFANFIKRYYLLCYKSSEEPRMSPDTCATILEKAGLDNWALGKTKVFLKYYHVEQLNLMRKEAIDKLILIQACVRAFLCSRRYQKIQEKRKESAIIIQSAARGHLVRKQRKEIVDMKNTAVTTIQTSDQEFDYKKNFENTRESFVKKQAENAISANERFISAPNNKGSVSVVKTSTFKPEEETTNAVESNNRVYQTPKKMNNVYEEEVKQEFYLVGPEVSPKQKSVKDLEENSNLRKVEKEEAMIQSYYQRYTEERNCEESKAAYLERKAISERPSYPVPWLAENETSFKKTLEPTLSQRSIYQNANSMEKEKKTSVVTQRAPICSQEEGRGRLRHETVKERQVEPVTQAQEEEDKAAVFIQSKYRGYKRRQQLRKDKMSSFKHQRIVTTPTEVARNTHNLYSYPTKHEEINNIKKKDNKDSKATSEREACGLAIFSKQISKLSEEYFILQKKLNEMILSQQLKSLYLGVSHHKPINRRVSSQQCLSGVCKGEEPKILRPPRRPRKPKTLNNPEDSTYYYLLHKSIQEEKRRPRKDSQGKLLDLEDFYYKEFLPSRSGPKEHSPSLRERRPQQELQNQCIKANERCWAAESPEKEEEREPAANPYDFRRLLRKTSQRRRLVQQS
Chain of Protein-tyrosine kinase 2-beta (Homo sapiens) (Q14289 whole entry, looked up): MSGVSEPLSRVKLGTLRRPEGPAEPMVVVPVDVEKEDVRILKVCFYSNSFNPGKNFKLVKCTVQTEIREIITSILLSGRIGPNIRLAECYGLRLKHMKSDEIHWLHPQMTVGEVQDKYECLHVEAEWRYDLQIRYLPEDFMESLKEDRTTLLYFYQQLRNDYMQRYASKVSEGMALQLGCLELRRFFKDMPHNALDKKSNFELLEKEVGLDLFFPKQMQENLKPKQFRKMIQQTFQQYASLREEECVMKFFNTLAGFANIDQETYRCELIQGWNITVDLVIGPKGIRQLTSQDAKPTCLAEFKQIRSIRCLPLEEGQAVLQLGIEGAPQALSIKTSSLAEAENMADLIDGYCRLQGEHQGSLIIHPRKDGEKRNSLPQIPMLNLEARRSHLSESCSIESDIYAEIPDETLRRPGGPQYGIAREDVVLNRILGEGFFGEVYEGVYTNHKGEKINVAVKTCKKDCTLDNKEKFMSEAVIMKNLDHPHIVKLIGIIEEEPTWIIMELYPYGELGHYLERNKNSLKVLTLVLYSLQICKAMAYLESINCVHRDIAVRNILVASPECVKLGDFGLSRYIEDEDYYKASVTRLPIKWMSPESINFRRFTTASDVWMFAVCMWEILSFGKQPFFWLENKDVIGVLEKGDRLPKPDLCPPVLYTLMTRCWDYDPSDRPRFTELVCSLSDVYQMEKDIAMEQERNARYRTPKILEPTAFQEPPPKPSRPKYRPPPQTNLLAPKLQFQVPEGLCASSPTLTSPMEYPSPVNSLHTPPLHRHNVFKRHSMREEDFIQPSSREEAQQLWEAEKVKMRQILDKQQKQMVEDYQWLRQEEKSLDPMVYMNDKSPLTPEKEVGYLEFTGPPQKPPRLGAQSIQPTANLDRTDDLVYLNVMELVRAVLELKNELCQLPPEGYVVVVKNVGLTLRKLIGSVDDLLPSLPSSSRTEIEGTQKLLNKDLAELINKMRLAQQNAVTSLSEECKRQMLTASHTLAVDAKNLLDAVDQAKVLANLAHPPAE
Chain of Serine/threonine-protein kinase 32A (Homo sapiens) (Q8WU08 whole entry): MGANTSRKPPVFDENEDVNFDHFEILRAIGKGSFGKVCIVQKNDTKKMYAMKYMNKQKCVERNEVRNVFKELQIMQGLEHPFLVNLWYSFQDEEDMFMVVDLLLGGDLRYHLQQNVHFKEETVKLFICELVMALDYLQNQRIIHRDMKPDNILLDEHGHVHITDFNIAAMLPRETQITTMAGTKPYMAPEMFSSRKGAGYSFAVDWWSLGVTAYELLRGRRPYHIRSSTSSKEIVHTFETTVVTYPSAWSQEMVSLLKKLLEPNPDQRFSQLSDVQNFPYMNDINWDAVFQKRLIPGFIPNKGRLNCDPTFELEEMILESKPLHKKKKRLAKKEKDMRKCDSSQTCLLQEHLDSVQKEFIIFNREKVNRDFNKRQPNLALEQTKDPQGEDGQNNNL
Chain of Mitotic checkpoint serine/threonine-protein kinase BUB1 (O43683 whole entry, looked up): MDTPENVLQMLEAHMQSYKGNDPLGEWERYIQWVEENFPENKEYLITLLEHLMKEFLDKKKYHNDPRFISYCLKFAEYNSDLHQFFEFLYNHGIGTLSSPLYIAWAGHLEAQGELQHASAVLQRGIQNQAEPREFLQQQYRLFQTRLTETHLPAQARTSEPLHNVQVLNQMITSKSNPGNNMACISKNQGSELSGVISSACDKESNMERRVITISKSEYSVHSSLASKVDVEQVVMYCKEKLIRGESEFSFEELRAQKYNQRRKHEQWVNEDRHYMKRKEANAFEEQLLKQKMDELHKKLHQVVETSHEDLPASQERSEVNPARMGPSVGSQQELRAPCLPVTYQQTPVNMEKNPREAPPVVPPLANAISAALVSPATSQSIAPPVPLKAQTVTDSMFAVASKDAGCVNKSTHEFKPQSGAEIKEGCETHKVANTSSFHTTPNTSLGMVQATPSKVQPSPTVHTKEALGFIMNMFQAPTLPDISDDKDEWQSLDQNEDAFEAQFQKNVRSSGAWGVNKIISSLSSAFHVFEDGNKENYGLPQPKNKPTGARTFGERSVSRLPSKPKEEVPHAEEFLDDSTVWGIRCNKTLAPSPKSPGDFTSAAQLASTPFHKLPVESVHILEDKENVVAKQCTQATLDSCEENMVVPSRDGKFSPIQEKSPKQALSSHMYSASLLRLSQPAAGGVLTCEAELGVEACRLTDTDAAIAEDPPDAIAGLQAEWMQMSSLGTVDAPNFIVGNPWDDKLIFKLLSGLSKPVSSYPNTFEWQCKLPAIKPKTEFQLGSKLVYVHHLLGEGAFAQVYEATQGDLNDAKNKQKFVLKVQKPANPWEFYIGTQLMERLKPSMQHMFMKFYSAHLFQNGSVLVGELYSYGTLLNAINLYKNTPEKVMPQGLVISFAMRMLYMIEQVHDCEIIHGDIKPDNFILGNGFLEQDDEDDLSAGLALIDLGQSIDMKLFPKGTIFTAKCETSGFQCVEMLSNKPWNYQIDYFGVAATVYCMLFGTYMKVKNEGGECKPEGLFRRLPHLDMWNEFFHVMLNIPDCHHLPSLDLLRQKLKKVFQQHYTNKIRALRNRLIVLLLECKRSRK

On to `Cc1cc([C@@H](C)Nc2ccccc2C(=O)O)c2nc(N3CCOCC3)cc(=O)n2c1` [AZD-6482], for which the % of control in assay [1] came to 94%.

On to `Nc1cnc(N2CCc3cc(S(=O)(=O)Nc4c(F)cc(Cl)cc4F)cc(N4CCCC4=O)c32)nc1` [TP-020n], for which the % of control in assay [2] amounted to 100%.

Take `CCC(=O)N1CCN(c2ccc(-n3c(=O)ccc4cnc5ccc(-c6cnc7ccccc7c6)cc5c43)cc2C(F)(F)F)CC1`: the % of control in assay [3] was 100%.

Take `COc1cc(Nc2nc(C)cc(-c3cnn4nc(OC)ccc34)n2)cc(C(F)(F)F)c1`: the % of control in assay [4] is 77%; in assay [5], 63%.

In assay [6], `Cc1cc(F)c(C(=O)Nc2cccc(-c3nncn3C(C)C)n2)cc1-n1cnc(C2CC2)c1` yielded a % of control of 100%.

Consider `O=C(NOC[C@H](O)CO)c1ccc(F)c(F)c1Nc1ccc(I)cc1F`, for which the % of control in assay [7] stood at 100%.

With `CC[C@@H]1[C@H](F)C(=O)N[C@@H]1COc1nccc2cc(C(N)=O)c(OC)cc12` [ZIMLOVISERTIB], the % of inhibition in assay [8] was -0.9%.
